Patent US20100004248A1, “Use of a Nitric Oxide Synthase Modulator for the Treatment of Cardiac Indications” (priority 2005, published 2010)

Tests used:
Type in all cases: in vivo, mouse
reactive oxygen species = test: Reactive oxygen species generation in TAC myocardium (luminol, lucigenin, DHE, DCF); settings: WT mice, TAC 3 weeks, oral co-treatment
Method: Reactive oxygen species generation was examined by several independent methods. Superoxide production in left ventricular tissue homogenates was determined by luminol-enhanced chemiluminescence (EMD Biosciences). Flash frozen myocardium was homogenized in iced PBS buffer, centrifuged, and the precipitate re-suspended in assay buffer to a final concentration of 100 μM luminol following manufacturer's instructions. Phorbol-12-myristate-13-acetate or other oxidase stimulators were not used in the assay. Data were normalized by sample weight. In addition, fresh frozen left ventricular myocardium (8 μm slices) was incubated for 1 hour at 37° C. with florescent dyes 2′,7′-dichlorodihydro-fluorescein diacetate (DCF; Molecular Probes; 4 μM) (Invitrogen Corp.) reflecting hydrogen peroxide formation (DCF staining localizes principally to mitochondria within myocytes), dihydroethidium (DHE; Molecular Probes; 2 μM) which assesses O2^− formation (typically nuclear localization), and nitrotyrosine formation (polyclonal nitrotyrosine Ab, 1:100; Upstate), which can reflect formation of ONOO^−. Imaging was performed on a Zeiss inverted epifluorescence microscope attached to an argon-krypton laser confocal scanning microscope (UltraVIEW, Perkin Elmer Life Sciences, Inc.). […] Nitrotyrosine was also quantitatively assessed by ELISA assay (Oxis International).

[1] = system: C57/BL6 WT mice subjected to TAC pressure overload; test: Transthoracic echocardiography in conscious TAC mice; settings: WT mice, TAC 3 weeks, oral co-treatment 1 mg/g food; mean ± sem
From the text: (§1) Male NOS3 null mice (NOS3^−/−) and C57/BL6 WT controls (8-11 weeks, Jackson Labs, Bar Harbor, Me., USA) were used. Pressure overload was produced by transverse aorta constriction (TAC). Briefly, The aortic arch was isolated by entering the extrapleural space between the second and third rib, and afterwards the transverse aorta was isolated between the right and left carotid arteries. A 7-0 prolene suture ligature was tied around the transverse aorta against a 27-gauge needle to produce a 65-70% constriction after the removal of the needle. After closing the chest, animals were extubated, and a subcutaneous injection of morphine sulphate 0.2 mg, was administered before they returned to their cages. Animal's ventilatory and circulatory status was checked every 30 minutes during the first 2 hours. Sham-operated mice underwent the same operation except for aortic constriction. […] Animals were randomized to receive placebo or BH4 (120 mg/kg/d) for the next 5 weeks. At the end of the study, i.e. at 9 weeks, animal were sacrificed to receive tissue or underwent in vivo PV-loop analysis. […] Control mice were subject to sham operations, and animals were studied 3-9 weeks following surgery. An additional group of wild-type animals were subjected to TAC for 3 weeks while co-treated with oral tetrahydrobiopterin (BH4) (Sigma-Aldrich) (1 mg/g food) mixed in their rodent chow, providing 5 mg/day based on 4-6 g daily diet^8.
Two different BH4 treatment protocols are used. For experiments related to FIGS. 1-7, where prevention of cardiac indications is described BH4 is provided orally as a treatment starting 2 days after TAC surgery (once mice are again eating oral diet). For those figures related to treatment of established cardiac indications, FIGS. 8-23, BH4 is provided orally but this is delayed for 4 weeks to establish substantial cardiac hypertrophy, remodeling, and NOS-uncoupling. Then the treatment is provided for the remaining 5 week period.
For folate studies, C57/BL6 WT were treated with folate (10 mg/kg/day) or with placebo for a 9 week period during which time the hearts were exposed to TAC.
In vivo cardiac morphology was assessed by transthoracic echocardiography (Acuson Sequoia C256, 13 MHz transducer, Siemens) in conscious mice. M-mode left ventricular (LV) end-systolic and end-diastolic dimensions were averaged from 3-5 beats. Left ventricular ejection fraction (LVEF) and percent fractional shortening (% FS) were calculated as: LVEF=[(LVEDD)^3-(LVESD)^3]/(LVEDD)^3×100; % FS=(LVEDD−LVESD)/LVEDD×100. Wall thickness of lateral freewall and intraventricular septum were averaged. Studies and analysis were performed blinded to heart condition.

[2] = system: C57/BL6 WT mice subjected to TAC pressure overload; test: Body weight and heart weight in mice subjected to transverse aortic constriction (TAC); settings: TAC 3 weeks, oral co-treatment 1 mg/g food, mean ± sem
From the text: as §1, with “An additional group of wild-type animals were subjected to TAC for 3 weeks while co-treated with oral tetrahydrobiopterin (BH4) (Sigma-Aldrich) (1 mg/g food) mixed in their rodent chow, providing 5 mg/day based on 4-6 g daily diet^8.” left out

Question: Which “reactive oxygen species generation (luminol chemiluminescence, DHE, DCF)” value (reactive oxygen species) does the source give for Nc1nc2c(c(=O)[nH]1)NC(C(O)C(O)CO)CN2 (stereo not drawn) [H4N, tetrahydroneopterin] here?
Answer: Its value is “None of these changes were observed”.

Question: And the “Fractional Shortening” value [1]?
Answer: Its value is 33.8 ± 5.3%.

Question: And the “LV diameter Diastole” value [1]?
Answer: Its value is 3.94 ± 0.19 mm.

Question: What about the “LV diameter Systole” value [1] of the same molecule?
Answer: The value was 2.70 ± 0.31 mm.

Question: What about the Wall thickness [1] of the same molecule?
Answer: The Wall thickness was 0.98 ± 0.03 mm.

Question: What about the “Heart Weight (HW)” value [2] of the same molecule?
Answer: Its value is 231.3 ± 10.7 mg.
